This note sets out measurements from patent publication US8269000B2, “Substituted pyrimidine and triazine compounds” (Gruenenthal GmbH, priority 2008, dated 2012).

The target of one assay is T1, human B1R (Homo sapiens, UniProt P46663).
T1 construct: expressed in transfected cells; host or cells: CHO K1 cells
T1 sequence (P46663 1-353): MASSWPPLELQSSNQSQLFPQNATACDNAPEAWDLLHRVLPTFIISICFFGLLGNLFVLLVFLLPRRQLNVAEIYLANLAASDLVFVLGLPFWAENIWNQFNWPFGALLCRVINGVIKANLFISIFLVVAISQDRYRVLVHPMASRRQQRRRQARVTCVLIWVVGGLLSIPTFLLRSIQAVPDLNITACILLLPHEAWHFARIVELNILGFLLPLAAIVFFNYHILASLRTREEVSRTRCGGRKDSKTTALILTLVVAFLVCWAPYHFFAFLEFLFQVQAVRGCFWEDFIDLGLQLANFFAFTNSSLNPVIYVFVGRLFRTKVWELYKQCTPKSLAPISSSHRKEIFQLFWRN
Description: FLIPR Ca2+ functional study on bradykinin receptor 1 (hB1R CHO K1 cells). The note with it: % inhibition human B1R at 10 μM; for inhibition at 10 µM: read-out: % inh. (hum. B1R) 10 μM. It is filed as cell-based. The method in brief:
(§1)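 Antagonism was calculated as % of maximal inhibition of the Ca2+ rise triggered by agonist at EC80 (Lys-Des-Arg9-bradykinin for hB1R, Des-Arg9-bradykinin for rB1R), added 10-20 min after test compound (10 μM or serial dilutions for IC50) to Fluo-4-loaded transfected CHO K1 cells on FLIPR. Duplicates or triplicates, ≥2 independent runs.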

The target of the next assay is T2, rat B1R (Rattus norvegicus, UniProt P97583).
T2 construct: expressed in transfected cells; host or cells: CHO K1 cells
T2 sequence (P97583 1-337): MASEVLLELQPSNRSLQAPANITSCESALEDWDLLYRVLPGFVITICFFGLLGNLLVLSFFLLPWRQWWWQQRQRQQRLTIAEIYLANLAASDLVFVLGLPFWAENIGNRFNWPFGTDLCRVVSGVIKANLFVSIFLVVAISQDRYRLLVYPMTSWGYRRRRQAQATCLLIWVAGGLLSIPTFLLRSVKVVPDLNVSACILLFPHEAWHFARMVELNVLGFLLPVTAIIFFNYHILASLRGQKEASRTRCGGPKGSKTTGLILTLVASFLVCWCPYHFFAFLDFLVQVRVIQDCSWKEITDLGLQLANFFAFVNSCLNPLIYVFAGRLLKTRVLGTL
Description: FLIPR Ca2+ functional study on bradykinin receptor 1 (rB1R CHO K1 cells). It is filed as cell-based. The settings on record: for inhibition at 10 µM: CHO-K1, % inhibition rat B1R at 10 μM, read-out: % inh. (rat B1R) 10 μM. The method in brief:
as §1

With `COc1cc(C)c(S(=O)(=O)N(C)C(COc2nccc(N3CCC4(CCN(Cc5ccc(F)cc5)C4=O)CC3)n2)c2ccccc2)c(C)c1` (stereo not shown) [G_CC-060, N-[2-[[4-[3-[(4-fluorophenyl)methyl]-4-oxo-3,8-diazaspiro[4.5]decan-8-yl]-2-pyrimidinyl]oxy]-1-phenylethyl]-4-methoxy-N,2,6-trimethylbenzenesulfonamide], the inhibition at 10 µM was found to be 17% on human B1R and 88% on rat B1R.
As for `COc1cc(C)c(S(=O)(=O)N(C)C(COc2nccc(N3CCC(Oc4ccncc4)CC3)n2)c2ccccc2)c(C)c1` (stereo not shown) [G_CC-063, 4-methoxy-N,2,6-trimethyl-N-[1-phenyl-2-[[4-[4-(4-pyridyloxy)-1-piperidinyl]-2-pyrimidinyl]oxy]ethyl]benzenesulfonamide], the values for the inhibition at 10 µM at human B1R and at rat B1R were 28% and 101%, respectively.
Regarding `COc1cc(C)c(S(=O)(=O)N(C)CCOc2ccnc(N3CCC4(CCN(c5ccncc5)CC4)CC3)n2)c(C)c1` [H_CC-029, 4-methoxy-N,2,6-trimethyl-N-[2-[[2-[3-(4-pyridyl)-3,9-diazaspiro[5.5]undecan-9-yl]-4-pyrimidinyl]oxy]ethyl]benzenesulfonamide], the inhibition at 10 µM on human B1R stood at 92%; at rat B1R it was 101%.
With `COc1cc(C)c(S(=O)(=O)N2CCCCC2COc2ccnc(N3CCC4(CCN(c5ccncc5)CC4)CC3)n2)c(C)c1` (stereo not shown) [H_CC-032], the “% inh. (hum. B1R) 10 μM” value at human B1R is 77%. On rat B1R (% inhibition rat B1R at 10 μM), the “% inh. (rat B1R) 10 μM” value is 101%.
For `COc1cc(C)c(S(=O)(=O)N(C)C(COc2ccnc(N3CCC4(CCN(c5ccncc5)CC4)CC3)n2)c2ccccc2)c(C)c1` (stereo not shown) [H_CC-037, 4-methoxy-N,2,6-trimethyl-N-[1-phenyl-2-[[2-[3-(4-pyridyl)-3,9-diazaspiro[5.5]undecan-9-yl]-4-pyrimidinyl]oxy]ethyl]benzenesulfonamide], the inhibition at 10 µM on human B1R was 54%; at rat B1R, 102%.
